Measured values from ChEMBL document CHEMBL3507680, “University of Dundee, Gates Library screen for HepG2 cell viability”.

Test: Human HepG2 cell viability assay in 384 well format
Assay type: toxicity, cell-based
Set-up: dose 125 nL, time 70.5 hour; cytotoxicity at 70.5 h: concentration not given beside the values
Settings: HepG2 cells, read-out: Inhibition

| Structure (SMILES) | cytotoxicity at 70.5 h [%] |
| --- | --- |
| Cc1cnccc1-n1nc(C(C)C)nc1CCN(C)S(C)(=O)=O | -1.14 |
| CC(=O)NC1CCN(c2nc(N(C)C)nc3c2CCN(C(C)=O)C3)CC1 | -7.29 |
| CCc1noc(CN(CC)C(=O)c2ccc3ncsc3c2)n1 | 4.54 |
| O=C(CN1CCOC1=O)N1CC[C@@H](c2ccc3ccccc3c2)[C@H](O)C1 | -9.33 |
| O=C(C1CC1)N1CCC2(CC1)CNc1ccc(F)cc12 | -10.9 |
| CC(C)N1CCC(c2nnc(CN3CCCC3)n2C2CC2)CC1 | -4.86 |
| OC1(Cn2ccc3ncccc32)CCN(Cc2ccccn2)CC1 | 24.4 |
| CCOc1ccc(NC(=O)N(CCC#N)Cc2ccccn2)cc1F | 12 |
| CCNc1cc2c(nn1)CCN(C(=O)Cc1ccc3c(c1)CCO3)C2 | -7.37 |
| O=C(Cc1cccc(O)c1)N1CCCC(OCc2cccnc2)C1 (configuration not stated) | -7.55 |
| Cc1nc(C)n(C2CCCN(C(=O)c3ccn(C(C)C)n3)C2)n1 (configuration not stated) | -6.2 |
| Cn1ccnc1SCCNc1cc(N2CCOCC2)ncn1 | -19.6 |
| CN1CCN(C2CCN(CCOc3cccc(F)c3)CC2)C1=O | -13 |
| O=C(c1cc(C2CC2)[nH]n1)N1CCN(c2nccs2)CC1 | -11.6 |
| Cc1cc(CN(C)C2CCN(c3cccc(-c4cscn4)c3)CC2)on1 | -2.57 |
| COCC(=O)N1CCn2c(CN3CCN(C)CC3)cnc2C1 | -3.31 |
| CC(C)Oc1ccc(-c2csc(Cn3ccc(=O)[nH]c3=O)n2)cc1 | -0.0528 |
| CN(C)c1ccc(-c2ccnc3c2ccn3C)nn1 | 18.4 |
| CC(=O)Nc1nc(COc2nc(C)no2)cs1 | 24.6 |

| Structure (SMILES) | cytotoxicity at 70.5 h [%] |
| --- | --- |
| COCCNCc1cc2ccc(C)c(C)c2[nH]c1=O | 4.37 |
| COc1ccc(CN(C)Cc2c(C)noc2C)c(Br)c1OC | -8.43 |
| N#Cc1ccc(C(=O)N2CCCC3(C=Cc4ccccc4O3)CC2)cn1 (configuration not stated) | 7.89 |
| Cc1nc(CN2CCOC(Cn3cncn3)C2)nc2ccccc12 (configuration not stated) | -16.8 |
| CN(C)C(=O)CN1CCC2(CCCN(c3ncc(F)cn3)C2)C1=O (configuration not stated) | 16.4 |
| CN(C)c1ccc(NC(=O)c2ccnn2C)nc1 | 0.439 |
| CC(C(=O)NCc1ccnc(OCC(F)(F)F)c1)n1cncn1 (configuration not stated) | -2.68 |
| CC(C)c1nccn1C1CCCN(C(=O)c2cnc[nH]2)C1 (configuration not stated) | 3.72 |
| CO[C@H]1CCN(Cc2c(C)noc2C)[C@@H]2CN(Cc3cccnc3)C[C@H]12 | -7.23 |
| CN(C)CCNC(=O)c1cc2n(n1)CCN(C(=O)c1ccc[nH]1)C2 | -7.1 |
| CC(C)CCN1CCN(C(=O)c2c[nH]c(=O)[nH]2)CC1 | -8.02 |
| Cc1nc(CN(C)Cc2csc(-c3cccs3)n2)co1 | 6.2 |
| CSc1ccc(C(=O)N(c2ccc(F)cn2)C2CCOCC2)o1 | 30.2 |
| COc1ccc(OC)c(C2CCN(c3ccc4cc[nH]c4n3)C2)c1 (configuration not stated) | -6.46 |
| Cc1cccc(CN2CCC3(CCN(c4ncccn4)CC3)C2=O)c1 | 1.2 |
| Cc1cc(CNc2ccccc2Cl)no1 | -13.4 |
| Cc1nc(N(C)CCCc2nccn2C)c2nc(C)oc2n1 | -11.8 |
| Cc1csc(CCNC(=O)N2CCC(C(N)=O)CC2)n1 | -16.7 |
| CN(Cc1ncnn1C)C1CCN(c2sccc2C#N)C1=O (configuration not stated) | -1.7 |

| Structure (SMILES) | cytotoxicity at 70.5 h [%] |
| --- | --- |
| CCCc1n[nH]c(=O)n1Cc1ccc(OC)cc1 | 12.2 |
| CC(C)OCCN1CCN(C(C)c2nc(C3CC3)no2)CC1 (configuration not stated) | 17.9 |
| CC(C)N1CCC2(CC1)NC(=O)c1cc(Br)ccc1-n1nnnc12 | -4.14 |
| Cc1cc(Nc2ncccn2)nc(C2CCCN(CCO)C2)n1 (configuration not stated) | -9.85 |
| O=C(NC1CCCCC1)C1CCCN(C(=O)Nc2ccccn2)C1 (configuration not stated) | -15.3 |
| COc1cc(-n2cccc2)c(Cl)cc1C(=O)NS(C)(=O)=O | 6 |
| CCN(CC)C(=O)[C@@H]1C[C@H](n2cc(-c3ccccn3)nn2)CN1 | 12 |
| Cc1cc(C)n(Cc2ccc(-c3noc(C(=O)NC[C@@H](C)O)n3)cc2)n1 | -14.8 |
| Cc1ncsc1C(=O)NC1CCN(CC(N)=O)CC1 | -6.12 |
| O=c1c(CN2CCOCC2)coc(O)c1CN1CCOCC1 | -7.31 |
| O=c1ccc2c(n1Cc1cccnc1)CCN(CC1CCOC1)CC2 (configuration not stated) | -4.17 |
| CC(=O)N1CC(=O)N(c2ccsc2)CC12CCN(Cc1ccccn1)C2 (configuration not stated) | -6.8 |
| CCOC(=O)N1CCN(c2nc(N3CCCC3)c3ccccc3n2)CC1 | -6.36 |
| Cn1ccc(C(=O)NC2CCC23CCN(C(=O)c2ccnnc2)CC3)c1 (configuration not stated) | 27.1 |
| c1ccc(CN2C[C@@H]3CCCO[C@@H]3[C@H](Nc3ccccn3)C2)nc1 | -7.21 |
| O=C(C1CCCO1)N1CCC(n2cc(-c3ccsc3)nn2)CC1 (configuration not stated) | -13.3 |
| CN(CCCc1ccccc1)Cc1nc2c(cnn2C)c(=O)[nH]1 | -5.07 |
| COCC(=O)NCc1cnc(C)nc1-c1cn(C)c2ccc(OC)cc12 | -7.48 |
| CC(C)CNC(=O)c1ccc(NC(=O)NC(C)c2ccccn2)cc1 (configuration not stated) | -5.93 |
